Columns and labels:
immature rats = assay: Uterotrophic and antiuterotrophic actions in immature rat assay (uterine weight); assay type: in vivo; conditions: for suppression of estradiol's activity (uterotrophic action): with 17b-estradiol
Procedure: The uterotrophic and antiuterotrophic actions of CHF 3316.01 were studied to determine the estrogenic and antiestrogenic activity of CHF 3316.01 in immature rat assay. All experiments were conducted using subcutaneous injection of the test compound as a solution in 20% Solutol HS 15. Each experiment was accompained by a vehicle control group and a positive control group (17b-estradiol 2 mg/kg by subcutaneous injection). The test protocol was based on the immature rat assay protocol described by […]. and […] Endocr (1978), 99, 445-464. Animals were dosed on 3 successive days with the appropriate material. Animals were killed by an overdose of CO2 24 hr after the final dose. The body of the uterus was cut just above its junction with the cervix and at the junction of the uterine horns with the ovaries. The uterus was then weighed. Generally, 6 animals per exposure group were employed. The daily dose levels used for CHF 3316.01 were 10 and 20 mg/kg.

[1] = system: fetal rat long bones (radius and ulna); assay: Bone resorption in fetal rat long bone culture (bPTH 1-34 induced 45Ca release); conditions: for inhibition of 45Ca release induced by bPTH: bPTH 1-34 5 nM, 5 days culture
[2] = system: fetal rat long bones (radius and ulna); assay: as above; assay type: cell-based; conditions: 5 nM, day 5; n=7
Procedure: Pregnant Sprague-Dawley rats were injected subcutaneously with 0.2 mCi 45Ca (CaCl2, >10 Ci/g) on the 18th day of gestation (day of vaginal plug discovery equals day 0 of pregnancy).
To remove freely exchangeable 45Ca, bones were pre-incubated for 24 hours in 48-well polystyrene culture dishes (Costar, Cambridge, MA) containing 500 µl of a culture medium (BGJ-B medium) in an air humidified incubator at 37°C in 5% C02.
The medium was changed after 2 days.

estrogen receptors = target: T1, estrogen receptors (Bos taurus, UniProt P49884); assay: biochemical
T1 sequence (P49884 1-596): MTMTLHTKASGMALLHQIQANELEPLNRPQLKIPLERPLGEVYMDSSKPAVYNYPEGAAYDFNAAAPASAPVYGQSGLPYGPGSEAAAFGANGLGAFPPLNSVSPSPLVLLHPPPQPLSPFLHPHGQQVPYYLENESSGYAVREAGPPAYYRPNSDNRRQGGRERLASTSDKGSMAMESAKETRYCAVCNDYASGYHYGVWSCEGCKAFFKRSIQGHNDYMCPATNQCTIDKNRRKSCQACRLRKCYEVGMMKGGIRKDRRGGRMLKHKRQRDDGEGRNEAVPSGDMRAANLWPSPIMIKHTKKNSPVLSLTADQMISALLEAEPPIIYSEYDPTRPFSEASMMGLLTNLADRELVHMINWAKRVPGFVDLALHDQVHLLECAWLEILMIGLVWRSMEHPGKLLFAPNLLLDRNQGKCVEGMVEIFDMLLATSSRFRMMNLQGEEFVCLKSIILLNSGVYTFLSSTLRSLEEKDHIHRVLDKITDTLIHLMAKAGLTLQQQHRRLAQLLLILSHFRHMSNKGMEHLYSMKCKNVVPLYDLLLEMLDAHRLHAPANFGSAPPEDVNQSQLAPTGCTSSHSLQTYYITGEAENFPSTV
Procedure: To determine the estrogen receptor binding affinity of CHF 3316.01 calf uterus, prepared as previously described in McGuire W. L. et al. Eds. Estrogen receptors in human breast cancer, Raven Press N. Y., (1975), was used as source of estrogen receptors.
Displacement curves were generated using final concentrations of 1.5 nM 17b-[3H]estradiol as radioligand and (1)/(2) [formula] -log unit increments of CHF 3316.01, ranging from 0.1 to 10,000 nM.
Incubation time was 24 hr at 4°C, after which dextran-treated charcoal was added. The suspension was then centrifuged, and radioactivity in the supernatant fluid was determined by scintillation counting. Percent binding was determined in duplicate at each concentration of displacing ligand.
IC50 value for 50 % inhibition of 17b-[3H]estradiol binding and Ki value were determined by non linear regression analysis of log concentration-displacement curves.

## C[C@]12CC[C@@H]3c4ccc(O)cc4CC[C@H]3[C@@H]1CC[C@@H]2O [17b-estradiol, reference compound]
Immature rats; 2 mg/kg subcutaneous, three successive daily injections, immature rats
  increase of uterine weight above vehicle control group: 93%

## O=P(O)(O)C(Cl)(Cl)P(=O)(O)O [Disodium clodronate, dichloromethylene bisphosphonate, reference compound]
[1]; Rattus norvegicus, 120 h, read-out: inhibition of resorption
  inhibition at 5 µM: 90 ± 5%

## bPTH 1-34: bovine parathyroid hormone fragment 1-34, used to induce resorption (AVSEIQFMHNLGKHLSSMERVEWLRKKLQDVHNF; Parathyroid hormone; UniProt P01268 32-65, looked up, fragment)
[2]
  45Ca release, treated over control (T/C) ratio: 4.27±0.33

## O=c1c(-c2ccc(O)cc2)coc2cc(O)ccc12 [Example M2, 4',7-dihydroxyisoflavone, reference compound]
Estrogen receptors
  Ki: 127 nM

## Cl.O=C(c1ccc(OCCN2CCCCC2)cc1)c1oc2cc(O)ccc2c(=O)c1-c1ccc(O)cc1 [CHF 3316.01, 4',7-dihydroxy-2-(4-(2-(N-piperidinyl)ethyloxy)benzoyl)isoflavone hydrochloride]
Estrogen receptors
  Ki: 3.9 ± 0.3 nM
Immature rats; 10 mg/Kg per day subcutaneous, 3 days
  suppression of estradiol's activity (uterotrophic action): 63%
Immature rats; 20 mg/Kg per day subcutaneous, 3 days
  suppression of estradiol's activity (uterotrophic action): 78%
Immature rats; 10 and 20 mg/kg per day subcutaneous, 3 days
  uterotrophic activity: devoid of uterotrophic activity
[1]; 3 mM (so in the source)
  inhibition of 45Ca release induced by bPTH: 24.81±2.14%
[1]; 10 mM (so in the source)
  inhibition of 45Ca release induced by bPTH: 37.86%
[1]; 30 mM (so in the source)
  inhibition of 45Ca release induced by bPTH: full inhibition
[1]; Rattus norvegicus, read-out: apparent IC50 value
  IC50: 10000 nM
[1]; versus metabolite 3 of ipriflavone M3
  potency relative to M3 (more potent): ~2 fold
